Experiments:
Type in all cases: cell-based
IL-5 = test: Cytokine suppression using human peripheral blood mononuclear cells: IL-5; settings: human PBMC, CD3 antibody and CD28 antibody; read-out: IL-5 Inhibitory Activity, Human PBMC (Test Example 4)
Method: (§1) First, peripheral blood mononuclear cells (PBMC) were separated from whole blood by specific gravity centrifugation. Then, the isolated peripheral blood mononuclear cells were added to RPMI-1640 medium (containing 10% fetal bovine serum, penicillin, streptomycin, L-glutamine, and 2-mercaptoethanol), and cultured in a 96-well plate at 37° C. under 5% CO2 for 0 to 1 hour. The test compound dissolved in dimethyl sulfoxide was added to each well, followed by further culture at 37° C. under 5% CO2 for 1 hour. A medium containing only dimethyl sulfoxide instead of the test compound was added to the control well. […]
(§2) The measurement results obtained by measuring the TNFα inhibitory activity and IL-5 inhibitory activity (50% inhibitory concentration) of the test compounds by the above method were evaluated in accordance with the following evaluated basis; A: less than 10 nM, B: 10 nM or more and less than 100 nM, and C: 100 nM or more. In addition, the measurement results obtained by measuring the IL-17A inhibitory activity, IL-23 inhibitory activity, IL-4 inhibitory activity, and IL-13 inhibitory activity (50% inhibitory concentration) of the test compounds were evaluated in accordance with the following evaluated basis; A: less than 500 nM, B: 500 nM or more and less than 5000 nM, and C: 5000 nM or more.

IL-13 = test: Cytokine suppression using human peripheral blood mononuclear cells: IL-13; settings: human PBMC, CD3 antibody and CD28 antibody; read-out: IL-13 Inhibitory Activity, Human PBMC (Test Example 4)
Method: as §1, §2

IL-17A = test: Cytokine suppression using human T cells: IL-17A; settings: T-cell; human CD3-positive T cells, CD3 antibody, about 48 hours; read-out: IL-17A Inhibitory Activity, Human T-Cell (Test Example 5)
Method: First, CD3-positive T cells were separated from whole blood by a magnetic bead method using an EasySep cell separation kit. Separated T cells suspended in RPMI-1640 medium were seeded on a 96-well plate previously coated with CD3 antibody (final concentration 3 μg/mL). Further, CD28 antibody (final concentration 5 ng/mL) was added as an IL-5 production stimulus and an IL-13 production stimulus. A test compound dissolved in dimethyl sulfoxide was added to each well, followed by culture at 37° C. under 5% CO2. The culture was carried out for about 18 hours for the evaluation of the amount of TNFα, and for about 48 hours for the evaluation of the amounts of IL-17A, IL-5, and IL-13. […]
as §2, with “TNFα” for “TNFα inhibitory activity and IL-5”, “IL-5” for “IL-23 inhibitory activity, IL-4”

IL-23 = test: Cytokine suppression using human peripheral blood mononuclear cells: IL-23; settings: human PBMC, lipopolysaccharide 1 ng/mL; read-out: IL-23 Inhibitory Activity, Human PBMC (Test Example 4)
Method: as §1, §2

IL-4 = test: Cytokine suppression using whole human blood: IL-4 (CytoStim and CD28 antibody stimulus); settings: read-out: IL-4 Inhibitory Activity, Human Whole Blood (Test Example 3)
Method: The test compound dissolved in dimethyl sulfoxide was added to a 96-well plate, and RPMI-1640 medium and human peripheral blood containing sodium heparin were added, followed by culture at 37° C. under 5% CO2 for 1 hour. A medium containing only dimethyl sulfoxide instead of the test compound was added to the control well. […]
After collecting the culture supernatant after culturing, the amount of each cytokine was measured by the sandwich ELISA method. […]
as §2, with “100” for “10”, “500” for “100”, “activity and” for “activity, IL-23 inhibitory activity,”, “IL-4” for “IL-4 inhibitory activity, and IL-13”

## CC(C)(O)C(F)(F)Oc1ccc(-c2nccs2)c2oc(N3CC4CC(C3)N4)nc12 [Example 248, 1-((2-(3,6-Diazabicyclo[3.1.1]heptan-3-yl)-7-(thiazol-2-yl)benzo[d]oxazol-4-yl)oxy)-1,1-difluoro-2-methylpropan-2-ol]
IL-5
  IC50: < 10 nM
IL-13
  IC50: < 500 nM
IL-17A
  IC50: < 500 nM
IL-23
  IC50: < 500 nM
IL-4
  IC50: < 500 nM

## CCOc1cc([C@@H](CS(C)(=O)=O)N2C(=O)c3cccc(NC(C)=O)c3C2=O)ccc1OC [apremilast, reference compound]
IL-5
  IC50: > 100 nM
IL-13
  IC50: ≥ 5000 nM
IL-17A
  IC50: 500 to 5000 nM
IL-23
  IC50: ≥ 5000 nM
IL-4
  IC50: ≥ 5000 nM
